Reference: publication PMC6142817, “New Urea Derivatives Are Effective Anti-senescence Compounds Acting Most Likely via a Cytokinin-Independent Mechanism” (Frontiers in Plant Science, 2018)
Values joined by “and” are separate entries in the source; they are usually repeats but may differ in a detail not shown here. Equal values may be shown once. Read-outs that look alike come from different tables or passages of the source.

Legend:
AHK3 = target: T1, AHK3 (Arabidopsis thaliana, UniProt Q9C5U1); assay: Cytokinin receptor activation assay in E. coli (AHK3); format: cell-based
T1 construct: expressed in transfected cells; host or cells: Escherichia coli strain KMI001, plasmid pSTV28-AHK3
T1 sequence (Q9C5U1 1-1036): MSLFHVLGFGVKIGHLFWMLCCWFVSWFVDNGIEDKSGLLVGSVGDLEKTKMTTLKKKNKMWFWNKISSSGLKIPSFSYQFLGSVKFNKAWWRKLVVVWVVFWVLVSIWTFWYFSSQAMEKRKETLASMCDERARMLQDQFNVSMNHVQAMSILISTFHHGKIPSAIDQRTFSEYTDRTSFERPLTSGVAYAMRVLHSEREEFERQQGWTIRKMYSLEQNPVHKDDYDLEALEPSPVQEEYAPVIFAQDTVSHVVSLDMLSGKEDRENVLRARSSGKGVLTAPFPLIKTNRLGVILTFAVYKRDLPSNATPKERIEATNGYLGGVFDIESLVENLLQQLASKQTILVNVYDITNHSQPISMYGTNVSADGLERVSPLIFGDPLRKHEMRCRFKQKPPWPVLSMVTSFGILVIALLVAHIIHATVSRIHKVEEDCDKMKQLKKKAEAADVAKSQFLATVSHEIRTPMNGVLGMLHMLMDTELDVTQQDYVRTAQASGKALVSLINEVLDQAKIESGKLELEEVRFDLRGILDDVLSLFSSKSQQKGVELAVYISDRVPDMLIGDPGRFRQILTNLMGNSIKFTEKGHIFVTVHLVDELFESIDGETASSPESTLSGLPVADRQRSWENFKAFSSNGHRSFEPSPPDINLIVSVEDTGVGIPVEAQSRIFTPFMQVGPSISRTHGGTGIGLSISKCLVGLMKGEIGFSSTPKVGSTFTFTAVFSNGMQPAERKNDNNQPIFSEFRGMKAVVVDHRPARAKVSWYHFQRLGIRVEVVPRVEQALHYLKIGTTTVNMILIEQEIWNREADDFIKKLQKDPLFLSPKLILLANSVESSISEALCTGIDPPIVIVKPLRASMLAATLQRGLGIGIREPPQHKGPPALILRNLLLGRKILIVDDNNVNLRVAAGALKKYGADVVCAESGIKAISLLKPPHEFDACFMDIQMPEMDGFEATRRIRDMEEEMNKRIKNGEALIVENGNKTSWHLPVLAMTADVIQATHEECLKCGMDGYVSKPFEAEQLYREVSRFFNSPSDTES
Excerpt: (§1) The activity of this enzyme is finally measured in the assay and corresponds to the ability of the tested compound to activate this cytokinin receptor. Both assays were done at least twice and the presented graphs are the most representative examples.

[1] = system: detached wheat leaves (membrane lipid peroxidation); assay: TBARS content (lipid peroxidation) in leaves from WLSA; format: cell-based, Triticum aestivum; conditions: 5 days in the dark, DMSO control = 100%
Procedure: Four leaf segments of combined weight of 100 mg from WLSA (5 days in the dark) were used for the determination of TBARS. Each sample was done in five repetitions (5 × 100 mg). The peroxidation of leaf membrane lipids was determined as described by Kováčik et al. ([2006]), with minor modifications—wheat leaves were extracted with 80% methanol and the trichloroacetic acid content was decreased to 0.1%.

CRE1/AHK4 = CRE1/AHK4 (Arabidopsis thaliana, UniProt Q9C5U0); assay: Cytokinin receptor activation assay in E. coli (CRE1/AHK4); format: cell-based; design: expressed in transfected cells; host or cells: Escherichia coli strain KMI001, plasmid pIN-IIIAHK4; conditions: E. coli bacterial receptor assay
Excerpt: as §1

[2] = target: T2, Arabidopsis thaliana cytokinin oxidase/dehydrogenase 2 (AtCKX2) (Arabidopsis thaliana, UniProt Q9FUJ3); assay: AtCKX2 inhibition assay (PMS/MTT); format: biochemical; conditions: PMS/MTT kinetic assay
T2 construct: made in house; host or cells: Saccharomyces cerevisiae strain 23344c ura-, plasmid pYES2-AtCKX2; cell-free growth medium used directly
T2 sequence (Q9FUJ3 23-501): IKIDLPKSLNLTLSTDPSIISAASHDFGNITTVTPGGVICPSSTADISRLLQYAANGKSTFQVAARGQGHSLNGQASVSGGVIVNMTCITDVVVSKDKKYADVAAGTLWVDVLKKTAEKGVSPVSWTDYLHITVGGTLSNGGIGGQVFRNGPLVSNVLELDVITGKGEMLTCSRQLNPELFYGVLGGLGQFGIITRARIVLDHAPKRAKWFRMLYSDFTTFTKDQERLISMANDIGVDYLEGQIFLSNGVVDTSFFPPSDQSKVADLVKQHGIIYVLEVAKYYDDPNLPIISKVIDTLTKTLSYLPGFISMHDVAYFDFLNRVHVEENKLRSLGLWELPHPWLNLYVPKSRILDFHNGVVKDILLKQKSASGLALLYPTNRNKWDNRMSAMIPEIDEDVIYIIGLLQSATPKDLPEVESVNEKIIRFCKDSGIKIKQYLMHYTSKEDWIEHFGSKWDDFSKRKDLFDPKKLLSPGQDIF
Procedure: The method based on the coupled redox reaction of phenazine methosulfate and 3-(4,5-dimethylthiazol-2-yl)-2,5-diphenyltetrazolium bromide resulting in the formation of a formazan dye was used to test the ability of the synthesized compounds to inhibit AtCKX2. The assay was performed as described previously (Frébort et al., [2002]). Cell-free growth medium of Saccharomyces cerevisiae strain 23344c ura- harboring the plasmid pYES2- AtCKX2 was used directly as a source of AtCKX2 (Frébortová et al., [2007]).

[3] = system: detached wheat leaves (ethylene production); assay: Ethylene accumulation assay; format: cell-based, Triticum aestivum; conditions: 10 μM, sealed vials; for ethylene production, fold of the control: days 3–6, dark; for ethylene production, fold of untreated leaves: first 3 days, dark
Procedure: Two detached leaf tips (final weight 50 mg) from 7-day-old wheat plants were incubated in 10 mL gas chromatography vials with either 1 mL of 0.1% DMSO (control), 10 μM ASES or 10 μM TDZ, and kept in the dark for 6 days at 25°C (1 day longer than the classical WLSA). On the third day, 1 mL of air from each vial was collected and the vials were then left open for 1 h and aerated with fresh air. Another 1 mL of air was collected from each vial on the sixth day. The amount of ethylene in each sample was determined using gas chromatography and the flame ionization detector method described by Fišerová et al. ([2001]).

Sequence of CRE1/AHK4 (Q9C5U0 whole entry): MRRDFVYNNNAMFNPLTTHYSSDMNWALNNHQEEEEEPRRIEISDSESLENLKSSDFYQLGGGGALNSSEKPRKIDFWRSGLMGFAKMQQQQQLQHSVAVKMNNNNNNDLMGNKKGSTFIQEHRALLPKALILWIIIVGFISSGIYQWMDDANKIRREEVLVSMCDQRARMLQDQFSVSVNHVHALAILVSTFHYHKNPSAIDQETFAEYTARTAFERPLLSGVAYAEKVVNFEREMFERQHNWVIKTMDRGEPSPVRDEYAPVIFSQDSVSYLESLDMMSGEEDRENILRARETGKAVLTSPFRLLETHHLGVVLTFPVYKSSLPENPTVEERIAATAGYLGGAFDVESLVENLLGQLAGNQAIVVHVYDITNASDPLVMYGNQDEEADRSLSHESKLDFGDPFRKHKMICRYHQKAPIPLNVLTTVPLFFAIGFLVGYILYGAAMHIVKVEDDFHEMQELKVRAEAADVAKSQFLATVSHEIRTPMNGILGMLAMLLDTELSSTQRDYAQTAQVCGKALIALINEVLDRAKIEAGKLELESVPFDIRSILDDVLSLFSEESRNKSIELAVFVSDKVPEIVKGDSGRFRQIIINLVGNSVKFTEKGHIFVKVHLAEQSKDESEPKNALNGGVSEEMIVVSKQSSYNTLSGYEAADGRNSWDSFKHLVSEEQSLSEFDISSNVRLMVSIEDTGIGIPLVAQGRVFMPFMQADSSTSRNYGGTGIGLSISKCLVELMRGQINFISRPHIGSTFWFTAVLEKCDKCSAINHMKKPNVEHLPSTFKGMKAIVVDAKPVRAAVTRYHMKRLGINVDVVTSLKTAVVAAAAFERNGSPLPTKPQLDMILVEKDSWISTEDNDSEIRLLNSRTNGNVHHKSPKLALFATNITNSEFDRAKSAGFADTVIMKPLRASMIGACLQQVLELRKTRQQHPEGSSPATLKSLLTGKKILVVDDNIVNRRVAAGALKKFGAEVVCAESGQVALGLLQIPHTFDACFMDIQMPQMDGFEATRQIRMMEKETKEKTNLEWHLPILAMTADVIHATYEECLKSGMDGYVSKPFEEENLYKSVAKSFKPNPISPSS

Row | EC50 (AHK3; E. coli bacterial receptor assay, read-out: AHK3 receptor activation EC50) [nM] | Compound | TBARS content (relative %) ([1]; 0.01 μM) | TBARS content (relative %) ([1]; 0.1 μM) | TBARS content (relative %) ([1]; 1 μM) | TBARS content (relative %) ([1]; 10 μM) | TBARS content (relative %) ([1]; 100 μM, fresh control = 0) | ability to activate the CRE1/AHK4 receptor (CRE1/AHK4) | inhibition of AtCKX2 [2] | ethylene production, fold of the control [3] [fold] | ethylene production, fold of untreated leaves [3] [fold] | EC50 (AHK3) [nM]
1 | > 50000 | COCCNC(=O)Nc1cnns1 [ASES, 1-(2-methoxy-ethyl)-3-1,2,3-thiadiazol-5-yl-urea] | 105 (±5) % | 91 (±10) % | 47 (±4) % | 31 (±5) % | 24 (±6) % and 24% | No other derivative from the series, including ASES, was able to activate | neither ASES nor any of the other synthesized substances inhibited AtCKX2 | 1.22 | 1.36 | 
2 |  | O=C(Nc1ccccc1)Nc1cnns1 [TDZ, 1-phenyl-3-(1,2,3-thiadiazol-5-yl)urea, reference compound] | 101 (±5) % | 80 (±3) % | 71 (±6) % | 68 (±8) % | 55 (±10) % |  |  | 2.18 | 2.02 | 105
